Key:
[1] = system: BxPC-3; assay: Solid tumour and haematological malignancy assay (CellTiterGlo); format: cell-based; settings: 72 hr
Method: (§1) In vitro viability assay were performed to assess the effects of compounds on cell viability in selected cell lines over 72 hr using the CellTiterGlo (CTG, Promega-G7573) assay. The tests were performed in duplicates with treatment of compounds at 9 points, 3.16 folds titration in 96 well plates over ˜72 hr. The compound starting concentrations were 198 mM. Cell viability assay using CellTiterGlo in 96-well plate were performed. Compound treatment 72 hrs, standard growth conditions, duplicates. Compounds were dissolved to 40 mM with thawed […]. Compounds were serially diluted at 3.16 fold in thawed DMSO, and warmed to 37° C. before being dissolved in media (2 μl+200 μl). After compounds were dissolved in media, media containing compounds were warmed to 37° C. in incubator and then compounds in media were added to cell plates (50 μl+50 μl) in duplicates. The compounds' final concentrations were from 198M to 19.9 nM. All compound solubilities were checked and recorded again, then the plates were transferred to CO2 tissue culture incubator immediately and incubated for 3 days. DMSO final concentration is 0.5%.

[2] = system: HS445; assay: as above; format: cell-based; settings: 72 hr
Method: as §1

[3] = system: Jurkat; assay: as above; format: cell-based; settings: for MI %: 72 hr; for IC50: Homo sapiens, 72 h, read-out: IC50 (absolute IC50)
Method: as §1

[4] = system: MOLT-4; assay: as above; format: cell-based; settings: Homo sapiens, MOLT-4, 72 h; for Emax: read-out: MI %; for IC50: read-out: IC50 (absolute IC50)
Method: as §1

[5] = system: MV4-11; assay: as above; format: cell-based; settings: for IC50: Homo sapiens, MV4-11, 72 h, read-out: IC50 (absolute IC50)
Method: as §1

[6] = system: RL; assay: as above; format: cell-based; settings: Homo sapiens, 72 h, read-out: MI %
Method: as §1

[7] = system: SW620; assay: as above; format: cell-based; settings: for IC50: Homo sapiens, SW-620, 72 h, read-out: IC50 (absolute IC50); for MI %: SW620, 72 hr
Method: as §1

[8] = system: THP-1; assay: as above; format: cell-based; settings: 72 hr
Method: as §1

[9] = system: Z138; assay: as above; format: cell-based; settings: 72 hr
Method: as §1

[10] = system: RPMI-8226; assay: as above; format: cell-based, Human; settings: for MI %: RPMI-8226, 72 hr
Method: as §1

[11] = system: CEM (TdT+ve); assay: ATP ViaLight plus cell viability assay; format: cell-based, Human; settings: for (FD) fold difference compared to control: CEM
Method: (§2) Certain compounds of the invention were subjected to further studies to test the cytotoxic activity of certain compounds of the invention and also to measure their activity against 4 haematological cancer cell lines • TdT positive CEM (Human ALL) • TdT negative K562 (Human CML) • TdT negative H1-60 (Human ANLL) • RL (CRL-2261) non-HD lymphoma • The concentrations of the active metabolite dATP (Cordycepin triphosphate) in these cell lines was also measured. • The cytotoxic activity and the intracellular 3′-dATP concentrations were also studied in the presence of hENT1, Adenosine Kinase (AK) and Adenosine Deaminase pharmacological inhibitors in CEM and RL cancer cell lines. Said inhibitors that mimic known cancer resistance mechanisms. Methods Cell Culture
(§3) HL-60, K562, CCRF-CEM and RL cell lines were cultured in RPMI-1640 medium (Sigma Aldrich, UK), which were supplemented with 10% Fetal Bovine Serum (FBS) (PAA Laboratories), 1% amphotericin B (5.5 ml) and 1% penicillin/streptomycin (5.5 ml) (PAA Laboratories) and grown in flasks at 37° C. incubator with 5% CO2.
(§4) The amount of ATP was used as a measurement of cell number and cell viability. ATP ViaLight™ plus assay kit (Lonza, USA: Product No. LT07-121) to detect ATP in cells treated in luminescence compatible 96 well plates (initial concentration of cells was 1×10^4 cells/well) with cordycepin and ProTides at concentrations of: 0, 0.1, 0.5, 1, 5 and 10 μM, followed by incubation for 72 hours at 37° C. incubator with 5% CO2. For inhibitor studies, 10 μM of NBTI or 1 μM EHNA or A-134974 was added and left for 5 minutes before adding the drugs (see section 5 for inhibitor details).
(§5) After incubation, 50 μl of cell lysis reagent was added to the 96 well plates to release the intracellular ATP, followed by 100 μl of ATP monitoring reagent (AMR). The luminescent values of each well were determined using FLUOstar OPTIMA microplate reader (BMG Labtech) which convert ATP into light by using luciferase enzyme. Therefore, the amount of luminescence produced was directly proportional to the amount of ATP.
(§6) Cell lines were treated in the same way as described above but before treatment with drugs, a number of inhibitors were added: • 1) Nitrobenzylthioinosine (NBTI) (Sigma-Aldrich, St. Louis, MO, product # N2255) blocks nucleoside transporters • 2) EHNA hydrochloride (Sigma-Aldrich, St. Louis, MO, product # E114) blocks adenosine deaminase • 3) Adenosine kinase inhibitor A-134974 dihydrochloride hydrate (Sigma-Aldrich, St. Louis, MO, product # A2846): blocks adenosine kinase
(§7) The dose-response curves of cytotoxicity of the drugs was determined using non-linear regression analysis of percentage cell viability versus concentration and EC50 values were obtained. The intracellular assay was conducted in five replicates for each condition. Intracellular assay was determined using paired t test (two-tailed) analysis of 3′ ATP/ATP concentration and p-values were obtained. For all the analysis, Prism Software program (GraphPad Software) was used and Microsoft Powerpoint® 2013 was used to plot the results.

[12] = system: HL-60; assay: ATP ViaLight plus cell viability assay; format: cell-based, Human; settings: for (FD) fold difference compared to Cordycepin = Cordycepin IC50/ProTide IC50: HL-60
Method: as §2, §3, §4, §5, §7

[13] = system: K562; assay: ATP ViaLight plus cell viability assay; format: cell-based, Human; settings: for (FD) fold difference compared to Cordycepin = Cordycepin IC50/ProTide IC50: K562
Method: as §2, §3, §4, §5, §7

[14] = system: RL (CRL-2261); assay: ATP ViaLight plus cell viability assay; format: cell-based
Method: as §2, §3, §4, §5, §6, §7

[15] = system: CCRFCEM; assay: Solid tumour and haematological malignancy assay (CellTiterGlo); format: cell-based; settings: Homo sapiens, CCRF-CEM, 72 h
Method: as §1, with “The tests were performed in duplicates with treatment of compounds at 9 points, 3.16 folds titration in 96 well plates over ˜72 hr. The compound starting concentrations were 198 mM.” left out, “Compounds were serially diluted at 3.16 fold in thawed DMSO, and warmed to 37° C. before being dissolved in media (2 μl+200 μl).” left out, “The compounds' final concentrations were from 198M to 19.9 nM.” left out

| SMILES | MI % [1] [%] | MI % [2] [%] | MI % [3] [%] | Emax [4] [%] | IC50 [5] [µM] | Emax [6] [%] | IC50 [7] [µM] | MI % [7] [%] | MI % [8] [%] | MI % [9] [%] | MI % [10] [%] | (FD) fold difference compared to Cordycepin = Cordycepin IC50/ProTide IC50 ([11]; CEM (TdT+ve)) | (FD) fold difference compared to control ([11]; AK) | (FD) fold difference compared to control ([11]; EHNA) | (FD) fold difference compared to control ([11]; NBTI) | (FD) fold difference compared to Cordycepin = Cordycepin IC50/ProTide IC50 [12] | (FD) fold difference compared to Cordycepin = Cordycepin IC50/ProTide IC50 [13] | (FD) fold difference compared to Cordycepin = Cordycepin IC50/ProTide IC50 [14] | (FD) fold difference compared to control ([14]; AK) | (FD) fold difference compared to control ([14]; EHNA) | further results |
| --- | --- | --- | --- | --- | --- | --- | --- | --- | --- | --- | --- | --- | --- | --- | --- | --- | --- | --- | --- | --- | --- |
| COC(=O)C(C)(C)NP(=O)(OC[C@@H]1C[C@@H](O)[C@H](n2cnc3c(N)ncnc32)O1)Oc1cccc2ccccc12 (stereo partly drawn) [E, Methyl 2-(((((2S,4R,5R)-5-(6-amino-9H-purin-9-yl)-4-hydroxytetrahydrofuran-2-yl)-methoxy)(naphthalen-1-yloxy)phosphoryl)amino)-2-methylpropanoate] | 71 | 85 | 95 | 98 | 5 to 15 | 88 | 15 to 100 | 74 | 43 | 93 | 89 | 2 | 1 | 1 | 2 | 1 | 1 | 2 | 1 | 1 | MI % ([5]; MV4-11, 72 hr): 101%; (FD) fold difference compared to control ([14]; NBTI): 1 |
| C[C@H](NP(=O)(OC[C@@H]1C[C@@H](O)[C@H](n2cnc3c(N)ncnc32)O1)Oc1cccc2ccccc12)C(=O)OCc1ccccc1 (stereo partly drawn) [B, (2S)-benzyl 2-(((((2S,4R,5R)-5-(6-amino-9H-purin-9-yl)-4-hydroxytetrahydrofuran-2-yl)methoxy)(naphthalen-1-yloxy)phosphoryl)amino)propanoate] | 90 | 96 | 100 | 98 | 0.1 to 5 | 96 | 5 to 15 | 93 | 99 |  | 102 | 150 | 1 | 1 | 1 | 4 | 52 | 61 | 1 | 2 | IC50 [3]: 0.1 to 5 µM; IC50 [4]: 0.1 to 5 µM; IC50 ([15]; read-out: IC50 (absolute IC50)): 0.1 to 5 µM; (FD) fold difference compared to control ([14]; NBTI): 1 |
| CCOC(=O)CCc1ccccc1OP(=O)(N[C@@H](C)C(=O)OCc1ccccc1)OC[C@@H]1C[C@@H](O)[C@H](n2cnc3c(N)ncnc32)O1 (stereo partly drawn) [F, (2S)-benzyl 2-(((((2S,4R,5R)-5-(6-amino-9H-purin-9-yl)-4-hydroxytetrahydrofuran-2-yl)methoxy)(2-(3-ethoxy-3-oxopropyl)phenoxy)phosphoryl)amino)propanoate] | 78 | 92 | 100 | 98 |  |  | 15 to 100 |  |  | 76 | 106 | 5 |  |  |  | 1 | 2 | 7 |  |  | IC50 [3]: 0.1 to 5 µM; IC50 [4]: 0.1 to 5 µM; Emax ([15]; read-out: MI %): 101%; IC50 ([10]; Homo sapiens, RPMI-8226, 72 h, read-out: IC50 (absolute IC50)): 15 to 100 µM; IC50 ([11]; Homo sapiens, 72 h, CEM (TdT+ve), 72 hours): 4.3 µM; IC50 ([12]; Homo sapiens, HL-60, 72 h): 8.3 µM; IC50 ([13]; Homo sapiens, K562, 72 h): 6.3 µM |

— US12054510B2, “2′ and/or 5′ amino-acid ester phosphoramidate 3′-deoxy adenosine derivatives as anti-cancer compounds” (Nucana plc, priority 2014, dated 2024)
